Laboratory results as given in patent publication US20200121697A1, “METHODS FOR DIAGNOSING AND TREATING CACHEXIA” (Aurin Biotech Inc., priority 2017, published 2020).

Assays:
salivary TNFα = test: Salivary TNFα levels (ELISA) and cachexia symptoms in cachexic cancer patients under oral treatment; assay type: in vivo, human
Description: Endogenous TNFα production can be measured by ELISA. The data reported herein used the Peprotech human TNFα kit (catalog 900-T25) following directions of the manufacturer. Alternative ELISA methods, not relying on commercial manufacturers, could be employed. […] This standard curve was used to calculate TNFα production in various organs and in saliva as presented herein.
The stabilization step may involve known methods for stabilizing TNFα, such as those described by Lee et al. (2017), incorporated herein by reference.
The detection step is designed to treat the stabilized saliva sample with an TNFα antibody in such a way as to bind essentially all of the TNFα present in the sample. The detection step may involve an immunoassay, such as an ELISA test based on an antigen-antibody reaction using TNFα as the antigen to be measured. For example, the capture antibody may be a polyclonal antibody specific for TNFα. […] In some embodiments the second TNFα antibody may be a monoclonal antibody, such as a mouse monoclonal antibody. Biotin may then be bound to the monoclonal antibody or to a third IgG antibody to which biotin is bound. The biotin levels are detected by first treating with a streptavidin solution linked with horse radish peroxidase (HRP) followed by treatment with a tetramethylbenzidine solution to detect the HRP by reading the resulting color in a spectrophotometer. An ELISA standard concentration graph of target TNFα may be obtained, for example, by absorbance detection, fluorescence detection, luminescence detection, or electrochemical detection. […] Alternatively, the immunoassay may be performed by a method capable of directly or indirectly detecting TNFα. Examples of such alternative methods include MS (Mass Spectrometry), MS/MS, and liquid chromatography.
The invention can be further understood by reference to the following examples, which are provided by way of illustration and are not meant to be limiting. The examples are of human cancer cases that had become cachexic. The patients had salivary TNFα levels ranging from 405 to 462 pg/ml. The TNFα in these cases was restored to normal levels by treatment with DAS (4,4′-diacetoxy-1,1 biphenyl-3,3′ dicarboxylic acid) or APAC for 10-21 days. […] They also support the fact that complement is required for TNFα production.

TNFα [1] = target: TNFα (Homo sapiens, UniProt P01375); test: Binding of APAC and DAS to TNFα / TNFα peptide; details: 0-5 nmol/ml of DAS and 0-175 nmol/ml of TNFα peptide, FIG. 10
Protocol: (§1) A 12-mer peptide spot array was synthesized on a cellulose membrane using a Semi-automated AutoSpot robot (INTAVIS, USA) covering the 233 amino acid sequence of TNFα. A total of 112 peptides, each shifted by 2 amino acids were synthesized. The TNFα membrane was soaked in 50% methanol in 10 mM PBS (pH7.4) for 2 minutes, then washed twice with PBS. The membrane was then incubated with 1 mM of APAC or DAS in PBS (10 mM, pH7.4) for one hour at 37° C. After washing 3 times with PBS, positive images were captured with a SYPRO Ruby filter for APAC and an Alexa 680 filter for DAS by the Chemidoc MP imaging System (Bio-Rad, USA).
(§2) A strongly positive peptide sequence was chosen for synthesis of a potential inhibitor of TNFα binding. The sequence of this TNFα-A2 peptide was NH3-YLGGVFQLEKGDRLSA-COOH. It was synthesized using a standard peptide Synthesizer (Liberty Blue, CEM Inc, USA) with Wang Resin and Fmoc amino acids (GL Biochem Ltd, Shanghai, CN). After synthesis, the peptide was purified by HPLC on a C18 column (Quadarupole 6110 LC/MS, Agilent Technology, USA) with a flow phase of 0.5% trifluroacetic acid (TFA) in acetonitrile to 0.05% TFA in H2O. The eluted peptide was detected by ultraviolet light (280 nm). The peptide inhibited binding of APAC to TNFα (FIG. 9) and of DAS to TNFα (FIG. 10).

TNFα [2] = test: Binding of APAC and DAS to TNFα / TNFα peptide
Protocol: as §1, §2

## CC(=O)Oc1ccc(-c2ccc(OC(C)=O)c(C(=O)O)c2)cc1C(=O)O [DAS, 4,4′-diacetoxy-1,1 biphenyl-3,3′ dicarboxylic acid]
Salivary TNFα; Example 4, peritoneal carcinomatosis patient, DAS 3×100 mg/day, Day 12
  symptoms of cachexia: subsided
Salivary TNFα; Example 4, peritoneal carcinomatosis patient, DAS 3×100 mg/day, nine days into treatment (Day 12)
  salivary TNFα level: 161 pg/mL
Salivary TNFα; Example 4, person, stage IV peritoneal carcinomatosis and cachexia, 394 pg/ml Day 0, 406 pg/ml before start, DAS 3×100 mg/day, five days into treatment (Day 8)
  salivary TNFα level: 288 pg/mL
Salivary TNFα; oral intake
  increased salivary TNFα levels of cachexic cancer patients: rapidly reduced to normal levels
Salivary TNFα; patient with terminal colon cancer, FIG. 14
  elevated salivary TNFα over time: reversed
TNFα [1]
  binding of DAS to a TNFα peptide as a function of the peptide concentration: linear

## NC(=O)NO [hydroxyurea, reference compound]
Salivary TNFα; Example 1, terminal leukemia patient, ten days after APAC discontinued (155 pg/ml on Day 20) and hydroxyurea 500 mg×2/day begun
  salivary TNFα level: 228 pg/mL

## TNFα-A2 peptide: synthesized TNFα sequence peptide NH3-YLGGVFQLEKGDRLSA-COOH (H-YLGGVFQLEKGDRLSA-OH)
TNFα [2]; FIG. 9
  binding of APAC to TNFα in presence of the peptide: inhibited
TNFα [2]; FIG. 10
  binding of DAS to TNFα in presence of the peptide: inhibited
